#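 These data come from cells grown in 96-well plates and exposed to compound for 48 hours at five concentrations. The concentration for 50% growth inhibition is given as GI50. At the TGI there is no net growth.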 Activity calls are given as the source filed them. No stated cut-off is given here; in the data, active means GI50 below about 0.43 µM; inactive means the rest.
# Columns and labels:
# Assay in all cases: NCI-60 cell line screen, 48 h
# [1] = tested on: K-562 leukemia
# [2] = tested on: HS 578T breast
# [3] = tested on: KM12 colon
# [4] = tested on: SF-295 CNS
# [5] = tested on: SK-MEL-2 melanoma
# [6] = tested on: MCF7 breast
# [7] = tested on: NCI-H226 lung
# [8] = tested on: SK-MEL-28 melanoma
# [9] = tested on: OVCAR-4 ovarian
# [10] = tested on: NCI/ADR-RES ovarian
# [11] = tested on: UO-31 renal
# [12] = tested on: RPMI-8226 leukemia
# [13] = tested on: EKVX NSCLC
# [14] = tested on: SR leukemia
# [15] = tested on: 786-0 renal
# [16] = tested on: HCT-15 colon
# [17] = tested on: SF-268 CNS
# [18] = tested on: PC-3 prostate
# [19] = tested on: HL-60(TB) leukemia
# [20] = tested on: OVCAR-8 ovarian
# [21] = tested on: SK-MEL-5 melanoma
# [22] = tested on: RXF 393 renal
# [23] = tested on: CCRF-CEM leukemia
# [24] = tested on: HCC-2998 colon
# [25] = tested on: MOLT-4 leukemia
# [26] = tested on: A549 NSCLC
# [27] = tested on: UACC-257 melanoma
# [28] = tested on: SNB-75 CNS
# [29] = tested on: SN12C renal
# [30] = tested on: NCI-H522 lung
# [31] = tested on: LOX IMVI melanoma
# [32] = tested on: IGROV1 ovarian
# [33] = tested on: MDA-MB-231 breast
# [34] = tested on: UACC-62 melanoma
# [35] = tested on: ACHN renal
# [36] = tested on: HCT-116 colon
# [37] = tested on: SF-539 CNS
# [38] = tested on: COLO 205 colon
# [39] = tested on: MALME-3M melanoma
# [40] = tested on: MDA-MB-435
# [41] = tested on: SK-OV-3 ovarian
# [42] = tested on: DU-145 prostate
# [43] = tested on: U251 CNS
# [44] = tested on: T-47D breast
# [45] = tested on: SNB-19 CNS
# [46] = tested on: SW-620 colon
# [47] = tested on: A498 renal
# [48] = tested on: HT29 colon
# [49] = tested on: OVCAR-3 ovarian
# [50] = tested on: NCI-H460 lung
# [51] = tested on: HOP-92 NSCLC
# [52] = tested on: M14 melanoma
# [53] = tested on: HOP-62 NSCLC
# [54] = tested on: BT-549 breast
# [55] = tested on: NCI-H23 lung
# [56] = tested on: OVCAR-5 ovarian
# [57] = tested on: MDA-N
# [58] = tested on: CAKI-1 renal
structure (smiles),measurement,setting,value
COC(=O)CCC(=O)C(=O)OC,GI50,[1],33.5 mM
same,GI50,[2],26.6 mM
same,TGI,[2],97.1 mM
same,GI50,[3],27.9 mM
same,GI50,[4],42 mM
same,GI50,[5],19.7 mM
same,TGI,[5],41.4 mM
same,outcome,[6],inactive
same,GI50,[7],17.3 mM
same,TGI,[7],65.1 mM
same,GI50,[8],17.6 mM
same,TGI,[8],60.4 mM
same,GI50,[9],65 mM
same,GI50,[10],72.6 mM
same,GI50,[11],15 mM
same,TGI,[11],85.7 mM
same,GI50,[12],17.2 mM
same,TGI,[12],51.2 mM
same,GI50,[13],20.6 mM
same,GI50,[14],4.36 mM
same,TGI,[14],41.1 mM
same,GI50,[15],33 mM
same,GI50,[16],31.5 mM
same,GI50,[17],26.4 mM
same,GI50,[18],27.8 mM
same,TGI,[18],84.5 mM
same,GI50,[19],23.6 mM
same,TGI,[19],61.6 mM
same,GI50,[20],63.2 mM
same,GI50,[21],94.3 mM
same,GI50,[22],30.3 mM
same,TGI,[22],95.1 mM
same,GI50,[23],17.8 mM
same,TGI,[23],85.5 mM
same,GI50,[24],25.3 mM
same,TGI,[24],73 mM
same,GI50,[25],34.8 mM
same,GI50,[26],52.9 mM
same,GI50,[27],30.8 mM
same,GI50,[28],14.8 mM
same,GI50,[29],21.5 mM
same,TGI,[29],62.1 mM
same,GI50,[30],13.4 mM
same,TGI,[30],30.5 mM
same,GI50,[31],13.3 mM
same,GI50,[32],19 mM
same,TGI,[32],76.8 mM
same,GI50,[33],39.5 mM
same,GI50,[34],13.6 mM
same,TGI,[34],51.1 mM
same,GI50,[35],16.3 mM
same,GI50,[36],30.6 mM
same,GI50,[37],24.5 mM
same,outcome,[38],inactive
same,GI50,[39],37.9 mM
same,GI50,[40],62.1 mM
same,GI50,[41],11.7 mM
same,TGI,[41],62 mM
same,GI50,[42],31.7 mM
same,GI50,[43],33.4 mM
same,outcome,[44],inactive
same,GI50,[45],34.2 mM
same,GI50,[46],53.6 mM
same,GI50,[47],18.5 mM
same,TGI,[47],39.7 mM
same,GI50,[48],24.2 mM
same,TGI,[48],85.9 mM
same,GI50,[49],28.6 mM
same,GI50,[50],34.1 mM
same,GI50,[51],19.3 mM
same,TGI,[51],82.2 mM
same,GI50,[52],32.3 mM
same,GI50,[53],23.7 mM
same,GI50,[54],26.3 mM
same,TGI,[54],96.2 mM
same,GI50,[55],27.4 mM
same,TGI,[55],95.7 mM
same,GI50,[56],26.1 mM
OCC1OC(n2nc(-c3ccccc3)nc2-c2cnccn2)C(O)C(O)C1O (centres undefined),TGI,[1],> 0.1 mM
same,TGI,[3],> 0.1 mM
same,TGI,[4],> 0.1 mM
same,TGI,[6],> 0.1 mM
same,TGI,[8],> 0.1 mM
same,TGI,[9],> 0.1 mM
same,TGI,[10],> 0.1 mM
same,TGI,[11],> 0.1 mM
same,TGI,[57],> 0.1 mM
same,TGI,[12],> 0.1 mM
same,TGI,[15],> 0.1 mM
same,TGI,[16],> 0.1 mM
same,TGI,[18],> 0.1 mM
same,TGI,[19],> 0.1 mM
same,TGI,[20],> 0.1 mM
same,TGI,[21],> 0.1 mM
same,TGI,[23],> 0.1 mM
same,TGI,[24],> 0.1 mM
same,TGI,[25],> 0.1 mM
same,TGI,[26],> 0.1 mM
same,TGI,[27],> 0.1 mM
same,TGI,[28],> 0.1 mM
same,TGI,[29],> 0.1 mM
same,TGI,[30],> 0.1 mM
same,TGI,[31],> 0.1 mM
same,TGI,[32],> 0.1 mM
same,TGI,[33],> 0.1 mM
same,TGI,[34],> 0.1 mM
same,TGI,[36],> 0.1 mM
same,TGI,[37],> 0.1 mM
same,TGI,[38],> 0.1 mM
same,TGI,[40],> 0.1 mM
same,TGI,[41],> 0.1 mM
same,TGI,[42],> 0.1 mM
same,TGI,[43],> 0.1 mM
same,TGI,[44],> 0.1 mM
same,TGI,[45],> 0.1 mM
same,TGI,[46],> 0.1 mM
same,TGI,[48],> 0.1 mM
same,TGI,[49],> 0.1 mM
same,TGI,[50],> 0.1 mM
same,TGI,[51],> 0.1 mM
same,TGI,[52],> 0.1 mM
same,TGI,[53],> 0.1 mM
same,TGI,[54],> 0.1 mM
same,TGI,[55],> 0.1 mM
same,TGI,[56],> 0.1 mM
CC1(C#N)N(C(=O)c2ccccc2)c2ccccc2N1C(=O)c1ccccc1,GI50,[1],0.033 mM
same,GI50,[6],0.0372 mM
same,GI50,[7],0.0918 mM
same,GI50,[9],0.0577 mM
same,GI50,[10],0.0797 mM
same,GI50,[11],0.0451 mM
same,GI50,[57],0.0794 mM
same,GI50,[12],0.0398 mM
same,GI50,[14],0.0454 mM
same,GI50,[19],0.0699 mM
same,GI50,[23],0.0239 mM
same,TGI,[23],0.0779 mM
same,GI50,[25],0.0229 mM
same,TGI,[25],0.0719 mM
same,GI50,[27],0.0864 mM
same,GI50,[30],0.0494 mM
same,GI50,[31],0.0336 mM
same,GI50,[33],0.0653 mM
same,GI50,[34],0.0797 mM
same,GI50,[35],0.0729 mM
same,GI50,[36],0.0354 mM
same,GI50,[38],0.0465 mM
same,GI50,[39],0.0446 mM
same,GI50,[40],0.0629 mM
same,GI50,[58],0.065 mM
same,GI50,[42],0.0818 mM
same,GI50,[43],0.0153 mM
same,GI50,[44],0.0387 mM
same,GI50,[46],0.0759 mM
same,GI50,[48],0.0664 mM
same,GI50,[51],0.052 mM
same,GI50,[52],0.0293 mM
same,TGI,[52],0.0984 mM
same,GI50,[55],0.0644 mM
